Read-outs that look alike come from different tables or passages of the source.
What was measured:
[1] = biological target: EGFR WT (wild type EGFR) (Homo sapiens (Human), UniProt P00533); assay: In vitro enzymatic TR-FRET (HTRF KinEASE-TK) kinase assay, EGFR WT; type: biochemical
Method: (I) In Vitro Enzymatic Experiment for EGFR WT and EGFR L858R/T790M/C797S
In the assay, the inhibition effect of the compound on the kinase activity of EGFR WT (wild type EGFR) and EGFR L858R/T790M/C797S was tested by adopting a time-resolved fluorescence resonance energy transfer (TR-FRET) method, and half maximal inhibitory concentration IC50 of the compound on the kinase activity of EGFR was obtained.
EGFR recombinase and EGFR L858R/T790M/C797S recombinase, purchased from Signalchem.
HTRF KinEASE-TK kit, purchased from Cisbio.
DTT, MnCl2, and MgCl2, purchased from Sigma.
ATP, purchased from Promega.
(§1) Brigatinib, purchased from Selleck.
1) 1× working solution was prepared: 5 mM MgCl2; 1 mM DTT; 1 mM MnCl2 and 1× kinase buffer (in kit).
2) […] of gradiently-diluted compound was transferred to a 384-well plate using Echo 550 (Labcyte).
3) 5 μL of 2× EGFR WT or EGFR L858R/T790M/C797S recombinase solution was added to the 384-well plate, and the plate was incubated at room temperature for 10 min.
4) 5 μL of 2× TK-substrate-biotin substrate solution (containing ATP) was added to the 384-well plate, and the plate was incubated at room temperature for 40 min.
5) 5 μL of assay solution containing Sa-XL 665 HTRF and 5 μL of TK-antibody-Cryptatewas were added to the plate, and the plate was incubated at room temperature for 1 h.
6) The fluorescence signal values at 615 nm and 665 nm were measured for each well using an Envision microplate reader (PerkinElmer).
7) The ratio of fluorescence signal values at 665 nm and 615 nm was calculated for each well.
8) Data analysis was performed using GraphPad Prism software to give the IC50 for compounds.

[2] = tested on: A431 cells (EGFR WT); assay: A431 cell proliferation inhibition assay (CellTiter-Glo); type: cell-based; settings: Homo sapiens
Method: A431 Cell Proliferation Inhibition Assay
In the assay, the inhibition effect of the compounds on the proliferation of A431 cells was tested by adopting a CellTiter-Glo method, and the concentration IC50 of the compound for inhibiting half maximal growth of cells was obtained.
A431 cells, purchased from ATCC.
DMEM medium, fetal bovine serum (FBS), and Penicillin-Streptomycin, purchased from GIBCO.
as §1
(§2) CellTiter-Glo reagent, purchased from Promega.
1) A431 cells were seeded in a 384-well plate at a density of 800 cells/well with 30 μL/well, and the plate was cultured in a cell incubator for 24 h (37° C., 5% CO2).
(§3) 2) Day 0: […] of gradiently-diluted compounds to be tested with a final concentration of DMSO of 0.1% was added to plate using Echo, and the plate was incubated in a cell incubator for 72 h (37° C., 5% CO2). […] of DMSO was added into each well in blank control group.
(§4) 3) Day 3: 30 μL Cell Titer-Glo reagent was added to each well, and the plate was in the dark under room temperature for 30 min.
(§5) 4) The chemiluminescent signal was detected by an Envision plate reader (PerkinElmer).
(§6) 5) Data analysis was performed using GraphPad Prism software to give the IC50 for compounds.

[3] = tested on: Ba/F3_Del19/T790M/C797S cells; assay: Ba/F3_Del19/T790M/C797S cell proliferation inhibition assay (CellTiter-Glo); type: cell-based; settings: Mus musculus
Method: Ba/F3_Del19/T790M/C797S Cell Proliferation Inhibition Assay
In the assay, the inhibition effect of the compounds on the proliferation of Ba/F3_Del19/T790M/C797S cells was tested by adopting a CellTiter-Glo method, and the concentration IC50 of the compound for inhibiting half maximal growth of cells was obtained.
Ba/F3_Del19/T790M/C797S, purchased from Kyinno Biotechnology Co., Ltd. 1640 medium, fetal bovine serum (FBS), Penicillin-Streptomyces, and GlutaMAX-I Supplement, purchased from GIBCO.
as §1, §2
1) Ba/F3_Del19/T790M/C797S cells were seeded in a 384-well plate at a density of 700 cells/well with 30 μL/well.
as §3, §4, §5
Data analysis was performed using GraphPad Prism 6 software to give the IC50 for compounds.

[4] = tested on: Ba/F3_L858R/T790M/C797S cells; assay: Ba/F3_L858R/T790M/C797S cell proliferation inhibition assay (CellTiter-Glo); type: cell-based; settings: Mus musculus
Method: Ba/F3_L858R/T790M/C797S Cell Proliferation Inhibition Assay
In the assay, the inhibition effect of the compounds on the proliferation of Ba/F3_L858R/T790M/C797S cells was tested by adopting a CellTiter-Glo method, and the concentration IC50 of the compound for inhibiting half maximal growth of cells was obtained.
Ba/F3_L858R/T790M/C797S cells were constructed by Pharmaron Beijing Co., Ltd.
1640 medium, fetal bovine serum (FBS), Penicillin-Streptomyces, and GlutaMAX-I Supplement, purchased from GIBCO.
as §1, §2
1) Ba/F3_L858R/T790M/C797S cells were seeded in a 384-well plate at a density of 700 cells/well with 30 μL/well.
as §3, §4, §5, §6

[5] = kinase activity, TR-FRET, read-out: EGFR (WT) IC50
[6] = A-431, cell proliferation, 72 h, CellTiter-Glo, read-out: A431 EGFR WT IC50
[7] = BaF3, cell proliferation, 72 h, CellTiter-Glo, read-out: Ba/F3 (Del19/T790M/C797S) IC50
[8] = BaF3, cell proliferation, 72 h, CellTiter-Glo, read-out: Ba/F3 (L858R/T790M/C797S) IC50
[9] = A-431, 72 h, read-out: A431 EGFR WT IC50(nM)
[10] = BaF3, 72 h, read-out: Ba/F3 (Del19/T790M/C797S) IC50(nM)
[11] = BaF3, 72 h, read-out: Ba/F3 (L858R/T790M/C797S) IC50(nM)

Chain of EGFR WT (wild type EGFR) (P00533 25-1210): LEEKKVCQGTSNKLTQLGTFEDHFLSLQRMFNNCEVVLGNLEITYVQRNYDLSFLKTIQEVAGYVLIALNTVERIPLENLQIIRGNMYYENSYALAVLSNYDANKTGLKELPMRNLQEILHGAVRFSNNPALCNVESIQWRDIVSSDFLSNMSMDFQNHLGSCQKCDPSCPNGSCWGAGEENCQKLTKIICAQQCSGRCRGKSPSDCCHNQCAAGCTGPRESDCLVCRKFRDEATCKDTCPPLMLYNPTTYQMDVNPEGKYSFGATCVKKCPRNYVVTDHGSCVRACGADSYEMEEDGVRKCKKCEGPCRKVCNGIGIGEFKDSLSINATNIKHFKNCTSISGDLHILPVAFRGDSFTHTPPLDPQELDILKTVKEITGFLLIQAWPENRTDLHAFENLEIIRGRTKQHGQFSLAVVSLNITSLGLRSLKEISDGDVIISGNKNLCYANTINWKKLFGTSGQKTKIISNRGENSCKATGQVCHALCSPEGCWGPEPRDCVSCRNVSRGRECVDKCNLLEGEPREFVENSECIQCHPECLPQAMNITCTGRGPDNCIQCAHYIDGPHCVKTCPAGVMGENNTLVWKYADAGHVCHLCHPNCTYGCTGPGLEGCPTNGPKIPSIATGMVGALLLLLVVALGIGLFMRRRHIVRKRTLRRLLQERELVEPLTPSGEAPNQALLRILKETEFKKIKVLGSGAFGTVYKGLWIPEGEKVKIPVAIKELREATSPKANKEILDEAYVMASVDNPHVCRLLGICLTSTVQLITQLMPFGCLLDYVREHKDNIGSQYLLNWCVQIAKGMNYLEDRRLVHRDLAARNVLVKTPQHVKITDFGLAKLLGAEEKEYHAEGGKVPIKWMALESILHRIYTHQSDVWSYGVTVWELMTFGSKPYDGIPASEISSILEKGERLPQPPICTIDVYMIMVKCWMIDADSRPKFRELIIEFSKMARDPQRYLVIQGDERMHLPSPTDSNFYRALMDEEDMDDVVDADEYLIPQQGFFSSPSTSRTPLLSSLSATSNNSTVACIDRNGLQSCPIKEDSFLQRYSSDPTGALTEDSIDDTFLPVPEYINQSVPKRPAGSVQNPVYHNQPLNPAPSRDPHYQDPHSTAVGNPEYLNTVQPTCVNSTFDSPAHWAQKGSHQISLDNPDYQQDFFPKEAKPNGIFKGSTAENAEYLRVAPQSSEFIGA

Compound	IC50 [1, 5]	IC50 [2, 6]	IC50 [3, 7]	IC50 [4, 8]	IC50 [1]	IC50 [2, 9]	IC50 [3, 10]	IC50 [4, 11]
COc1cc2c(cc1Nc1ncc(Br)c(Nc3ccc4nccnc4c3N(C)S(=O)(=O)C3CC3)n1)-c1cnn(C)c1CCN2C [Compound 21]	1 to 10 nM	100 to 1000 nM	< 10 nM	< 10 nM				
COc1cc2c(cc1Nc1ncc(Br)c(Nc3ccc4nccnc4c3N(C(C)C)S(C)(=O)=O)n1)-c1cnn(C)c1CCN2 [Compound 123]					1 to 10 nM	100 to 1000 nM	< 10 nM	< 10 nM
COc1cc2c(cc1Nc1ncc(Br)c(Nc3ccc4nccnc4c3CNS(C)(=O)=O)n1)-c1cnn(C)c1CCN2C(C)C [Compound 137]	1 to 10 nM	100 to 1000 nM	10 to 50 nM	10 to 50 nM				
COc1cc2c(cc1Nc1ncc(Br)c(Nc3ccccc3P(C)(C)=O)n1)-c1cnn(C)c1CCN2CCN1CCC(F)CC1 [Compound 41]	1 to 10 nM	100 to 1000 nM	< 10 nM	< 10 nM				
COc1cc2c(cc1Nc1ncc(Br)c(Nc3ccc4nccnc4c3P(C)(C)=O)n1)-c1cnn(C3COC3)c1CCN2C(C)C [Compound 98]	1 to 10 nM	100 to 1000 nM	10 to 50 nM	10 to 50 nM				
COc1cc2c(cc1Nc1ncc(Br)c(Nc3ccccc3P(C)(C)=O)n1)-c1cnnn1CCN2C [Compound 48]	10 to 50 nM	100 to 1000 nM	< 10 nM	10 to 50 nM				
COc1cc2c(cc1Nc1ncc(Br)c(Nc3ccccc3P(C)(C)=O)n1)-c1cn[nH]c1CCN2C [Compound 37]	1 to 10 nM	100 to 1000 nM	< 10 nM	10 to 50 nM				
COc1cc2c(cc1Nc1ncc(Br)c(Nc3ccc4nccnc4c3P(C)(C)=O)n1)-c1cnn(C)c1CCO2 [Compound 33]	1 to 10 nM	50 to 100 nM	< 10 nM	< 10 nM				
COc1cc2c(cc1Nc1ncc(Br)c(Nc3ccccc3N(C)S(C)(=O)=O)n1)-c1cnn(C)c1CCN2C [Compound 4]	1 to 10 nM	100 to 1000 nM	< 10 nM	< 10 nM				
COc1cc2c(cc1Nc1ncc(Br)c(Nc3ccccc3P(C)(C)=O)n1)-c1ccnn1CCN2C [Compound 29]	10 to 50 nM	100 to 1000 nM	10 to 50 nM	10 to 50 nM				
COc1cc2c(cc1Nc1nc(Nc3ccccc3P(C)(C)=O)c3cc[nH]c3n1)-c1cnn(C)c1CCN2C [Compound 36]	1 to 10 nM	100 to 1000 nM	< 10 nM	< 10 nM				
COc1cc2c(cc1Nc1ncc(Br)c(Nc3ccc4nccnc4c3P(C)(C)=O)n1)-c1cnn(C)c1CN(C(C)C)C2 [Compound 72]	1 to 10 nM					50 to 100 nM	< 10 nM	10 to 50 nM
COc1cc2c(cc1Nc1ncc(Br)c(Nc3ccccc3N(C)S(=O)(=O)C3CC3)n1)-c1cnn(C)c1CCN2C [Compound 3]	1 to 10 nM	100 to 1000 nM	< 10 nM	< 10 nM				
COc1cc2c(cc1Nc1ncc(Br)c(Nc3cccc4c3NS(=O)(=O)C4)n1)-c1cnn(C)c1CCN2C(C)C [Compound 132]	10 to 50 nM	> 1000 nM	10 to 50 nM	10 to 50 nM				
